Experimental data as given in patent US12122728B2, “Use of substituted 2-thiazolines as nitrification inhibitors” (BASF SE, priority 2018, dated 2024).

Tested on: nitrification
Test: Inhibition of nitrification in soil incubation test (ammonium and nitrate content after 14 days)
Conditions: 100 g soil, 10 mg ammoniumsulfate-N, 20° C., 0 and 14 days; for NI* @ 0.3%: compound at 0.3% of nitrogen N; for NI* @ 1%: compound at 1% of nitrogen N; for NI* @ 3%: compound at 3% (of nitrogen N)
Experimental: The compounds of the invention have been tested as follows in terms of the inhibition of nitrification:
100 g soil is filled into 500 ml plastic bottles (e.g. soil sampled from the field) and is moistened to 50% water holding capacity. The soil is incubated at 20° C. for two weeks to activate the microbial biomass. 1 ml test solution, containing the compound in the appropriate concentration (usually 0.3 or 1% of nitrogen N), or DMSO and 10 mg nitrogen in the form of ammoniumsulfate-N is added to the soil and everything mixed well. Bottles are capped but loosely to allow air exchange. The bottles are then incubated at 20° C. for 0 and 14 days.
For analysis, 300 ml of a 1% K2SO4-solution is added to the bottle containing the soil and shaken for 2 hours in a horizontal shaker at 150 rpm. Then the whole solution is filtered through a filter (Macherey-Nagel Filter MN 807%). Ammonium and nitrate content is then analyzed in the filtrate in an autoanalyzer at 550 nm (Merck, AA11).
The inhibition (NI® a specified concentration) is calculated as follows: […]

Structure (SMILES) | NI* @ 0.3% | NI* @ 1% | NI* @ 3%
CSC1=NCCS1 [Cmpd 1, 2-(Methylthio)-2-thiazoline] | 60.1 | 90.2 | 88
CC#CSC1=NCCS1 [Cmpd 2, 2-(Propynylthio)-2-thiazoline] |  |  | 76.3
SC1=NCCS1 [Cmpd 3, 2-Mercapto-2-thiazoline] |  | 47 | 83.5
CC1(C)CSC(S)=N1 [Cmpd 4, 4,4-Dimethyl-2-mercaptothiazoline] |  |  | 57.5
O=C(Nc1ccccc1)SC1=NCCS1 [Cmpd 5, 2-(Phenylaminocarbonylthio)-2-thiazoline] |  |  | 55
Br.O=C(CSC1=NCCS1)c1ccccc1 [Cmpd 6, 2-(2-Thiazolin-2-ylthio)-acetophenone, hydrobromide] | 21 | 31 | 53.9
Cc1cc(Cl)ccc1SC1=NCCS1 [Cmpd. 7, 2-(4-Chloro-2-methylphenylthio)-2-thiazoline] |  | 25.7 | 48.8
CCNC(=O)SC1=NCCS1 [Cmpd. 8, 2-(Ethylaminocarbonylthio)-2-thiazoline] |  |  | 43.1
CCSC1=NCCS1 [Cmpd. 9, 2-(Ethylthio)-2-thiazoline] |  | 22 | 
COC(=O)CSC1=NCCS1 [Cmpd. 10, (2-Thiazolin-2-ylthio)-acetic acid, methyl ester] |  | 21.5 | 
CN(C)C(=S)SC1NCCS1 (stereo not drawn) [Cmpd. 11, 4,5-dihydro-3H-thiazol-2-yl N,N-dimethylcarbamodithioate] |  | 31.2 | 58.4
